Experimental data published in patent US20230241205A1, “SARS-COV-2 IMMU[…] AND USES THEREOF” (TScan Therapeutics, Inc., priority 2020, published 2023).

Key:
Type in all cases: cell-based, human
[1] = tested on: memory CD8+ T cells of convalescent COVID-19 patients; target cells expressing only HLA-A*03:01; conditions: share of screened convalescent patients whose memory CD8+ T cells recognised the epitope; allele A*03
OC43 and HKU1 = assay: T-Scan screen, reactivity to corresponding epitopes in OC43 and HKU1 ORFeomes; conditions: COVID-19 patient memory CD8+ T cells
[2] = tested on: memory CD8+ T cells of convalescent COVID-19 patients; target cells expressing only HLA-A*02:01; conditions: of 9 HLA-A*02:01 patients

Substance | reactivity to corresponding epitopes in OC43 and HKU1 (OC43 and HKU1) | patients in whom epitope or region was identified / recognized [2] | further results
KCYGVSPTKY | – | – | % of Pts (Screen) [1]: 100%
KLWAQCVQL | do not recognize them | – | –
ORF1ab aa 3881-3900: 20-aa segment of SARS-CoV-2 ORF1ab recognized in the T-Scan screen | – | 7 of 9 | –
S aa 261-280: 20-aa segment of SARS-CoV-2 S protein recognized in the T-Scan screen | – | 7 of 9 | –
SPRWYFYYL | all four of the patients | – | –
